Columns and labels:
DU-145 cells = experiment: BrdU based cell proliferation assay, DU-145 cells; set-up: species or system human
Procedure: (§1) AC620 was incubated with hormone-refractory prostate cancer cell line DU-145 cells and hormone-responsive prostate cancer cell line LNCaP cells at various concentrations (0, 0.1, 0.5, 1, 5 μM) for 72 hr. LNCaP cells were maintained in RPMI 1640 medium (PAA Laboratories, Pashing, Austria) supplemented with 10% fetal calf serum (FCS) (Sigma, St. Louis, Mo.). The effect of AC620 on proliferation of DU-145 cells and LNCaP cells was determined by using a non-radioactive BrdU based cell proliferation assay kit (Roche, Switzerland) according to manufacturer's protocol. BrdU incorporation into the cellular DNA was determined by measuring the absorbance at 450 nm and 690 nm on an ELISA plate reader.
(§2) AC620 was incubated with hormone-refractory prostate cancer cell line DU-145 cells and hormone-responsive prostate cancer cell line LNCaP cells at 0 (Control) and 5 μM for 24, 48 and 72 hr. The effect of AC620 on proliferation of DU-145 cells and LNCaP cells was determined by using a non-radioactive BrdU based cell proliferation assay kit (Roche, Switzerland) according to manufacturer's protocol. BrdU incorporation into the cellular DNA was determined by measuring the absorbance at 450 nm and 690 nm on an ELISA plate reader.

VEGF = VEGF expression in DU-145 cells, immunoblotting; assay type: cell-based, human
Procedure: AC620 was dissolved in ethanol and then added to cultured DU-145 cells, a hormone-refractory, metastatic prostate cancer cell line. The concentrations tested were 0, 0.1, 0.5, 1 and 4 μM, and the cells were grown for 72 hr. Cells treated with ethanol for the same time period were used as Control. DU-145 cells were maintained in RPMI 1640 medium (PAA Laboratories, Pashing, Austria) supplemented with 10% fetal calf serum (FCS) (Sigma, St. Louis, Mo.). After 72 hr treatment, cell Tysates were collected and immunoblotting was performed. The membranes were probed with primary antibodies against VEGF and actin (Santa Cruz Biotechnology, Santa Cruz, Calif.) followed by horseradish peroxidase (HRP)-conjugated secondary antibodies (Amersham Life Science, Alesbury, U.K.) and visualized using the Enhanced Chemi-Luminescence detection system (ECL) and ECL films (Amersham Pharmacia Biotech).

CDK2 = CDK2 expression in DU-145 cells, immunoblotting; assay type: cell-based, human; conditions: 72 hr
Procedure: After 72 hr treatment, cell lysates were collected and immunoblotting was performed. The membranes were probed with primary antibodies against CDK2 (Transduction Laboratory, San Jose, Calif.) and actin (Santa Cruz Biotechnology, Santa Cruz, Calif.) followed by horseradish peroxidase (HRP)-conjugated secondary antibodies and visualized using the Enhanced Chemi-Luminescence detection system (ECL) and ECL films.

DU-145 tumor xenografts = experiment: Tumor growth in DU-145 xenograft mouse model; assay type: in vivo; conditions: for decrease of tumor size: athymic nude mice, DU-145 xenograft
Procedure: (§3) 8-12 week old athymic nude mice (Jackson Laboratories, Bar Harbor, Me., US) were randomly assigned to Control (n=10) and Treatment (n=10) groups. Tumor xenografts were generated by injecting DU-145 cells (4×10^6) subcutaneously into the mice (Day 1). 1 mg/kg body weight of AC620 or PBS (Control) was administrated to the mice by subcutaneous injection starting at the time of tumor implantation (Day 1) and the mice were treated twice a week. Tumors were measured periodically. At Day 30, the mice were sacrificed. Half of each tumor was processed for immunohistochemical analysis and the other half was frozen for subsequent protein and RNA analysis.

LNCaP cells = experiment: BrdU based cell proliferation assay, LNCaP cells; set-up: species or system human
Procedure: as §1, §2

HT-29 cells = experiment: Apoptosis, Annexin V, HT-29 cells; assay type: cell-based; conditions: 72 hr
Procedure: AC620 was incubated with DU-145 cells and LNCaP cells at various concentrations (0, 0.1, 0.5, 1, 5 μM) for 72 hr. The effect of AC620 on apoptosis of DU-145 cells and LNCaP cells was assessed. The cells were washed in 1×PBS and resuspended in binding buffer (0.01M Hepes pH 7.4, 0.14M NaCl, 2.5 mM CaCl2), stained with Annexin V conjugated with APC (Pharmingen) and then subjected to flow cytometry analysis using FACS Caliber (BD Biosciences, San Jose, Calif.).
AC620 was incubated with metastatic colorectal cancer cell line HT-29 cells at various concentrations (0, 0.1, 0.5, 1, 4 μM) for 72 hr. The effect of AC620 on apoptosis of HT-29 cells was assessed by Annexin V stating as described above.

Bcl-2 = Bcl-2 expression in xenograft tumor samples, immunoblotting; assay type: in vivo, mouse
Procedure: as §3
Xenograft mouse model was generated and AC620 or PBS (Control) was administrated to the transplanted mice for 30 days as described above. After the mice were sacrificed, immunoblotting analysis of the tumor samples was performed using Bcl-2 and p21 antibodies as described above.

## CC1OC(OCC2OC(Oc3c(-c4ccc(O)c(O)c4)oc4cc(O)c(O)cc4c3=O)C(O)C(O)C2O)C(O)C(O)C1O (stereo not drawn) [AC620]
DU-145 cells; 5 μM, after 24 hr
  decrease in cell proliferation of DU-145 cells: 6%
DU-145 cells; 5 μM, after 48 hrs
  decrease in cell proliferation of DU-145 cells: 31%
DU-145 cells; 5 μM, after 72 hr (time study)
  decrease in cell proliferation of DU-145 cells: 86%
DU-145 cells; 0.1 μm, 72 hr
  decrease in cell proliferation of DU-145 cells: 37%
DU-145 cells; 0.5 μm, 72 hr
  decrease in cell proliferation of DU-145 cells: 58%
DU-145 cells; 1 μm, 72 hr
  decrease in cell proliferation of DU-145 cells: 72%
DU-145 cells; 5 μm, 72 hr (dose study)
  decrease in cell proliferation of DU-145 cells: 84%
VEGF; 0.1 μm AC620, 72 hr
  reduced VEGF expression: approximately 40%
VEGF; 0.5 μm AC620, 72 hr
  reduced VEGF expression: approximately 60%
VEGF; 1 μm AC620, 72 hr
  reduced VEGF expression: approximately 80%
VEGF; 4 μm AC620, 72 hr
  reduced VEGF expression: over 95%
CDK2; 0.1 μm
  estimated decrease of CDK2 expression: ~0%
CDK2; 0.5 μm
  estimated decrease of CDK2 expression: ~10%
CDK2; 1 μm
  estimated decrease of CDK2 expression: ~20%
CDK2; 4 μm
  estimated decrease of CDK2 expression: ~60%
DU-145 tumor xenografts; 1 mg/kg subcutaneous twice a week, P<0.03
  tumor growth compared to Control: significantly reduced
DU-145 tumor xenografts; Day 19, 1 mg/kg subcutaneous twice a week
  decrease of tumor size: 47%
DU-145 tumor xenografts; Day 22, 1 mg/kg subcutaneous twice a week
  decrease of tumor size: 37%
DU-145 tumor xenografts; Day 25, 1 mg/kg subcutaneous twice a week
  decrease of tumor size: 24%
DU-145 tumor xenografts; Day 29, 1 mg/kg subcutaneous twice a week
  decrease of tumor size: 13%
DU-145 tumor xenografts; immunohistochemical specimens, 30 days treatment
  morphology of tumor samples compared to Control group: more differentiated morphology
LNCaP cells; 5 μM, after 24 hr
  decrease in cell proliferation of LNCaP cells: 16%
LNCaP cells; 5 μM, after 48 hr
  decrease in cell proliferation of LNCaP cells: 20%
LNCaP cells; 5 μM, after 72 hr (time study)
  decrease in cell proliferation of LNCaP cells: 65%
LNCaP cells; 0.1 μm, 72 hr
  decrease in cell proliferation of LNCaP cells: 23%
LNCaP cells; 0.5 μm, 72 hr
  decrease in cell proliferation of LNCaP cells: 20%
LNCaP cells; 1 μm, 72 hr
  decrease in cell proliferation of LNCaP cells: 42%
LNCaP cells; 5 μm, 72 hr (dose study)
  decrease in cell proliferation of LNCaP cells: 65%
HT-29 cells; 0.1 μm
  apoptosis increased, HT-29 cells: 10%
HT-29 cells; 0.5 μm
  apoptosis increased, HT-29 cells: 87%
HT-29 cells; 1 μm
  apoptosis increased, HT-29 cells: 220%
HT-29 cells; 5 μm
  apoptosis increased, HT-29 cells: 267%
Bcl-2; Treatment 1
  estimated decrease of Bcl-2 expression in tumor samples: ~80%
Bcl-2; Treatment 2
  estimated decrease of Bcl-2 expression in tumor samples: > 95%
Bcl-2; Treatment 3
  estimated decrease of Bcl-2 expression in tumor samples: ~90%
Bcl-2; Treatment 4
  estimated decrease of Bcl-2 expression in tumor samples: > 95%
